Assay results from ChEMBL document CHEMBL1142239, “Optimization of novel acyl pyrrolidine inhibitors of hepatitis C virus RNA-dependent RNA polymerase leading to a development candidate” (J Med Chem, 2007).
Activity calls are given as the source filed them. The calls are words filed in the database; no cut-off is given here.

What was measured:
[1] = Cytotoxicity against Vero cells after 4 days; format: cell-based; conditions: chlorocebus sabaeus, read-out: CCID50
Hepatitis C virus [2] = assay: Antiviral activity against HCV replicon containing HCV 1b genome transfected in Huh7 cells after 72 hrs by ELISA; format: functional, organism-based, Hepacivirus hominis; conditions: genotype 1b, Huh-7, 72 h
[3] = Plasma clearance in Sprague-Dawley rat at 1 mg/kg, iv; format: ADME, organism-based; set-up: dose 1 mg/kg, route intravenous
[4] = Bioavailability in Sprague-Dawley rat at 2 mg/kg, po and 1 mg/kg, iv; format: ADME, organism-based; conditions: in vivo
Hepatitis C virus [5] = assay: Inhibition of HCV 1b RB01 NS5B by SPA; set-up: species or system Hepatitis C virus subtype 1b
Hepatitis C virus [6] = assay: Inhibition of HCV 1b RB01 NS5B by filtermat assay; set-up: species or system Hepatitis C virus subtype 1b
[7] = Lipophilicity, log D of the compound; format: physicochemical; conditions: octanol/water
Hepatitis C virus [8] = assay: Antiviral activity against HCV replicon containing HCV 1b genome transfected in Huh7 cells in presence of interferon alpha 2a; format: functional, organism-based; conditions: Hepacivirus hominis; genotype 1b; Huh-7

SMILES	EC50 (Hepatitis C virus [2])	clearance [3]	bioavailability [4]	IC50 (Hepatitis C virus [5])	IC50 (Hepatitis C virus [6])	logD [7]	CC50 at 96 h [1]	Activity (Hepatitis C virus [8])
COc1cc(C(=O)N2[C@@H](c3nccs3)[C@H](CO)C[C@@]2(CC(C)C)C(=O)O)ccc1C(C)(C)C (racemic)	1300 nM	39 mL/min/kg	11%	1000 nM	–	–	482000 nM	–
COc1cc(C(=O)N2[C@@H](c3nccs3)[C@@H](CO)C[C@@]2(CC(C)C)C(=O)O)ccc1C(C)(C)C (racemic)	210 nM	36 mL/min/kg	12%	730 nM	–	–	358000 nM	–
CCOC[C@@H]1C[C@@](CC(C)C)(C(=O)O)N(C(=O)c2ccc(C(C)(C)C)c(OC)c2)[C@H]1c1nccs1 (racemic)	12800 nM	–	–	3200 nM	–	–	214000 nM	–
COC[C@H]1C[C@@](CC(C)C)(C(=O)O)N(C(=O)c2ccc(C(C)(C)C)c(OC)c2)[C@H]1c1nccs1	390 nM	5 mL/min/kg	59%	440 nM	–	2.2	240000 nM	Active
CCOC[C@H]1C[C@@](CC(C)C)(C(=O)O)N(C(=O)c2ccc(C(C)(C)C)c(OC)c2)[C@H]1c1nccs1	470 nM	5 mL/min/kg	120%	430 nM	–	2.7	142000 nM	–
COC[C@@H]1C[C@@](CC(C)C)(C(=O)O)N(C(=O)c2ccc(C(C)(C)C)c(OC)c2)[C@H]1c1nccs1	5700 nM	12 mL/min/kg	44%	2300 nM	–	–	265000 nM	–

The next lines start with results.

EC50 (Hepatitis C virus [2])	clearance [3]	bioavailability [4]	IC50 (Hepatitis C virus [5])	IC50 (Hepatitis C virus [6])	logD [7]	SMILES	CC50 at 96 h [1]	Activity (Hepatitis C virus [8])
> 20000 nM	–	–	–	20000 nM	–	CC(C)C[C@@]1(C(=O)O)C[C@H](C(=O)O)[C@H](c2cccs2)N1C(=O)c1ccc(C(F)(F)F)cc1 (racemic)	> 500000 nM	–
> 20000 nM	–	–	–	1100 nM	–	CC(C)C[C@@]1(C(=O)O)C[C@H](C(=O)O)[C@H](c2cccs2)N1C(=O)c1ccc(C(C)(C)C)cc1 (racemic)	> 500000 nM	–
1200 nM	29 mL/min/kg	5%	–	20 nM	–	CC(C)C[C@@]1(C(=O)O)C[C@H](C(N)=O)[C@H](c2nccs2)N1C(=O)c1ccc(C(C)(C)C)c(Cl)c1	> 500000 nM	–
610 nM	37 mL/min/kg	0.6%	–	5 nM	–	COc1cc(C(=O)N2[C@@H](c3nccs3)[C@@H](C(N)=O)C[C@@]2(CC(C)C)C(=O)O)ccc1C(C)(C)C	> 500000 nM	–
> 20000 nM	–	–	–	3800 nM	–	CC(C)C[C@@]1(C(=O)O)C[C@H](C(=O)O)[C@H](c2nccs2)N1C(=O)c1ccc(C(C)(C)C)cc1 (racemic)	> 500000 nM	–
570 nM	24 mL/min/kg	2%	–	14 nM	–	CC(C)C[C@@]1(C(=O)O)C[C@H](C(N)=O)[C@H](c2nccs2)N1C(=O)c1ccc(C(C)(C)C)c(Br)c1	> 500000 nM	–
> 20000 nM	21 mL/min/kg	2%	–	970 nM	–	CC(C)C[C@@]1(C(=O)O)C[C@H](C(N)=O)[C@H](c2nccs2)N1C(=O)c1ccc(C(C)(C)C)cc1	430000 nM	–
